From patent US20230000813A1, “COMPOUND FOR THE TREATMENT OF BOVINE OR SWINE RESPIRATORY DISEASE” (Intervet Inc., priority 2016, published 2023)
≈ marks a conversion by molar mass, not a printed value. Where “and” joins values, the source holds several entries; their conditions need not be identical. Identical values can stand only once. Marks after values point to notes of the source that are not given here.

How the values were obtained:
[1] = system: Mannheimia haemolytica MH 10720 (154, BRD field isolate); assay: MIC, broth-microdilution (CLSI VET01-A4); format: cell-based; conditions: strain MH 10720
In short: (§1)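 Visual no-turbidity endpoint over twofold compound dilutions in microdilution trays, interpreted according to CLSI VET01-S3.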

[2] = system: Mannheimia haemolytica MH 12587 (1071, BRD field isolate, macrolide-resistance: erm+, E+); assay: MIC, broth-microdilution (CLSI VET01-A4); format: cell-based; conditions: strain MH 12587, macrolide-resistant
In short: as §1

[3] = system: Mannheimia haemolytica MH 6357 (M7/2, reference strain, cattle infection strain); assay: MIC, broth-microdilution (CLSI VET01-A4); format: cell-based; conditions: strain MH 6357
In short: as §1

[4] = system: Mannheimia haemolytica MH 6374 (ATCC 33396, reference strain); assay: MIC, broth-microdilution (CLSI VET01-A4); format: cell-based; conditions: strain MH 6374
In short: as §1

[5] = system: Pasteurella multocida PM 10775 (080130003051, BRD field isolate); assay: MIC, broth-microdilution (CLSI VET01-A4); format: cell-based; conditions: strain PM 10775
In short: as §1

[6] = system: Pasteurella multocida PM 12080 (IV102277-0093, BRD field isolate); assay: MIC, broth-microdilution (CLSI VET01-A4); format: cell-based; conditions: strain PM 12080
In short: as §1

[7] = system: Pasteurella multocida PM 6267 (P 2225 (L386), reference strain, mouse infection strain); assay: MIC, broth-microdilution (CLSI VET01-A4); format: cell-based; conditions: strain PM 6267
In short: as §1

[8] = system: Pasteurella multocida PM 6391 (ATCC 43137, reference strain); assay: MIC, broth-microdilution (CLSI VET01-A4); format: cell-based; conditions: strain PM 6391
In short: as §1

[9] = system: Acinetobacter baumanii AB 15919 (IV369-2012, dermatitis field isolate); assay: MIC, broth-microdilution (CLSI VET01-A4); format: cell-based; conditions: strain AB 15919
Procedure: (§2) The Minimum inhibitory concentrations (MIC) of compounds according to the invention were determined by the broth-microdilution method according to CLSI document VET01-A4.
(§3) Microdilution trays containing a doubling dilution series of the test compound were used for the tests.
(§4) The MIC results were interpreted according to the CLSI documents VET01-S3. The lowest concentration of compound at which no visible growth (i.e. no turbidity) detected by the unaided eye was recorded as the MIC.

[10] = system: Acinetobacter baumanii AB 16496 (ATCC 19606, reference strain); assay: MIC, broth-microdilution (CLSI VET01-A4); format: cell-based; conditions: strain AB 16496
Procedure: as §2, §3, §4

[11] = system: Mannheimia haemolytica MH 12180 (KLI-02944, BRD field isolate); assay: MIC, broth-microdilution (CLSI VET01-A4); format: cell-based; conditions: strain MH 12180
Procedure: as §2, §3, §4

[12] = system: Pasteurella multocida PM 14426 (0006-439, BRD field isolate, macrolide-resistant); assay: MIC, broth-microdilution (CLSI VET01-A4); format: cell-based; conditions: strain PM 14426, macrolide-resistant
Procedure: as §2, §3, §4

[13] = system: Staphylococcus aureus SA 5816 (2139, mastitis field isolate); assay: MIC, broth-microdilution (CLSI VET01-A4); format: cell-based; conditions: strain SA 5816
Procedure: as §2, §3, §4

[14] = system: Staphylococcus aureus SA 6114 (ATCC 29213, reference strain); assay: MIC, broth-microdilution (CLSI VET01-A4); format: cell-based; conditions: strain SA 6114
Procedure: as §2, §3, §4

[15] = system: 20 isolates of Actinobacillus (A.) pleuropneumoniae; assay: MIC50/MIC90, broth-microdilution, European respiratory tract isolates; format: cell-based
Procedure: (§5) The in vitro activity of compounds against 20 isolates of Actinobacillus (A.) pleuropneumoniae, 20 of Bordetella (B.) bronchiseptica, 20 of Histophilus (H.) somni, 40 of Mannheimia (M.) haemolytica and 40 of Pasteurella (P.) multocida collected in different European countries were determined. All bacteria were isolated from the respiratory tract of swine and cattle suffering from respiratory disease. All isolates were epidemiologically unrelated as specified by the different suppliers.
(§6) The minimum inhibitory concentrations (MIC) of compounds according to the invention were determined by the broth-microdilution method according to CLSI document VET01-A4.
(§7) Microdilution trays containing a doubling dilution series of the test compounds were used for the tests.
as §4

[16] = system: 20 isolates of Bordetella (B.) bronchiseptica; assay: as above; format: cell-based
Procedure: as §5, §6, §7, §4

[17] = system: 20 isolates of Histophilus (H.) somni; assay: as above; format: cell-based
Procedure: as §5, §6, §7, §4

[18] = system: 40 isolates of Mannheimia (M.) haemolytica; assay: as above; format: cell-based
Procedure: as §5, §6, §7, §4

[19] = system: 40 isolates of Pasteurella (P.) multocida; assay: as above; format: cell-based
Procedure: as §5, §6, §7, §4

M. haemolytica = assay: Mannheimia haemolytica cattle lung infection model, efficacy (Example 10); format: in vivo, cattle calves; conditions: for Food consumption, cumulated for all animals in the group: 3 calves, 10 mg/kg
Procedure: Unless otherwise described the study was conducted as described in Clinical Example 8
Calves were infected via intratracheal instillation of appr. 300 mL of M. haemolytica PBS suspension containing approximately 4×10^9 CFU M. haemolytica in late log phase on Day 0.
One hour later three animals each were treated with 10 mg/kg of Compound 231(referred to as C. 231) (80 mg/mL in 10% Poloxamer 188), or 10 mg/kg or 5 mg/kg Compound 329 (referred to as C. 329) (150 mg/mL in 35% Cavitron).
The following clinical findings were recorded: The general behavior scores of the animals before (DO am) and after infection with M. haemolytica in the different treated and control groups are indicated in FIG. 8-1: 0=normal; 1=slightly depressive, 2=moderately depressive, 3=highly depressive, 4=recumbency.
The following pathomorphological findings after section on Day 2 were recorded: After measuring the body weight and the lung weight the Lung body mass ratio was calculated as shown in FIG. 8-2. A healthy animal has a lung body mass ration around 1.7 or lower. The area percentage of lung consolidations compared to the total lung tissue and the lung score determined that is a combined score of such percentage of lung consoldiations and the grade. For the “grade” the degree of lung consolidation score was graded from 0 to 3 for each of eight lung lobes: 0 no visible changes, 1 low graded colour changes or induration, 2 medium graded induration, 3 high graded induration, hepatisation, necrosis.
The geometrical means (CFU/g tissue) of bacteriological re-isolations of Mannheimia haemolytica from lung tissue are illustrated in FIG. 8-4.

[20] = Plasma and tissue concentrations in infected calves (Example 10); format: in vivo, cattle calves; conditions: SC single 10 mg/kg (C 231 in 10% Poloxamer 188; C 329 in 35% Cavitron), individual animals and mean
[21] = calves infected with M. haemolytica, SC, single, 10 mg/kg BW

## COCCNCc1ccc(C#Cc2ccc(C(=O)N[C@H](C(=O)NO)[C@@H](C)O)cc2)cc1 [C. 231]
[1]
  MIC: 0.5 µg/mL (≈ 1.18 µM)
[2]
  MIC: 0.5 µg/mL (≈ 1.18 µM)
[3]
  MIC: 0.5 µg/mL (≈ 1.18 µM)
[4]
  MIC: 0.25 µg/mL (≈ 0.588 µM)
[5]
  MIC: ≤0.016 µg/mL
[6]
  MIC: 0.063 µg/mL (≈ 0.148 µM)
[7]
  MIC: ≤0.016 µg/mL
[8]
  MIC: 0.063 µg/mL (≈ 0.148 µM)
[9]
  MIC: >16 µg/mL
[10]
  MIC: >16 µg/mL
[11]
  MIC: 0.5 µg/mL (≈ 1.18 µM)
[12]
  MIC: 0.032 µg/mL (≈ 0.0752 µM)
[13]
  MIC: >16 µg/mL
[14]
  MIC: >16 µg/mL
[15]
  MIC50: 0.25 µg/mL (≈ 0.588 µM)
  MIC90: 0.5 µg/mL (≈ 1.18 µM)
[16]
  MIC50: >16 µg/mL
  MIC90: >16 µg/mL
[17]
  MIC50: 0.125 µg/mL (≈ 0.294 µM)
  MIC90: 0.25 µg/mL (≈ 0.588 µM)
[18]
  MIC50: 0.5 µg/mL (≈ 1.18 µM)
  MIC90: 1 µg/mL (≈ 2.35 µM)
[19]
  MIC50: ≤0.016 µg/mL
  MIC90: 0.063 µg/mL (≈ 0.148 µM)
M. haemolytica; D 0 am, after infection and treatment
  Food consumption, cumulated for all animals in the group: 1800** g
M. haemolytica; D 0 pm
  Food consumption, cumulated for all animals in the group: 4800 g
M. haemolytica; D +1 am
  Food consumption, cumulated for all animals in the group: 4800 g
M. haemolytica; D +1 pm
  Food consumption, cumulated for all animals in the group: 4800 g
M. haemolytica; D −1 (before infection)
  Food consumption, cumulated for all animals in the group: 4800 g
M. haemolytica; [21]
  Bacteriological Cure (x of n): 2/3
  Survival (x of n): 3/3
M. haemolytica; tested dosages 10 mg/kg for C 231 and 10 mg/kg and 5 mg/kg for C 329, conclusion in words
  efficacy against an artificial lung infection with M. haemolytica in the calf: effective
[20]
  Concentration, Tissue (48 h) ELF: BLQ
  Concentration, Tissue (48 h) Muscle: 27 ng/mL
[20]; 10 mg/kg
  Concentration, Plasma 0.5 h: 1150 ng/mL (2×) and 1320 ng/mL
  Concentration, Plasma 2 h: 448 ng/mL and 468 ng/mL and 447 ng/mL
  Concentration, Plasma 4 h: 179 ng/mL and 171 ng/mL and 180 ng/mL
  Concentration, Plasma 6 h: 83.9 ng/mL and 82.8 ng/mL and 102 ng/mL
  Concentration, Plasma 24 h: 6.21 ng/mL and 10.8 ng/mL and 7.47 ng/mL
  Concentration, Plasma 48 h: BLQ and 7.16 ng/mL and 5.74 ng/mL
  Concentration, Tissue (48 h) Kidney: 56 ng/mL and 53.8 ng/mL and 79.3 ng/mL
  Concentration, Tissue (48 h) Liver: 48.7 ng/mL and 41.2 ng/mL and 66.9 ng/mL
  Concentration, Tissue (48 h) Lung: 26.6 ng/mL and BLQ and 22.4 ng/mL
  Concentration, Tissue (48 h) Muscle: BLQ
[20]; predose
  Concentration, Plasma 0 h: BLQ

## CCCNCc1ccc(C#Cc2ccc(C(=O)N[C@H](C(=O)NO)[C@@H](C)O)cc2)cc1 [C. 251]
[1]
  MIC: 0.25 µg/mL (≈ 0.611 µM)
[2]
  MIC: 2 µg/mL (≈ 4.88 µM)
[3]
  MIC: 2 µg/mL (≈ 4.88 µM)
[4]
  MIC: 8 µg/mL (≈ 19.5 µM)
[5]
  MIC: 8 µg/mL (≈ 19.5 µM)
[6]
  MIC: 0.063 µg/mL (≈ 0.154 µM)
[7]
  MIC: 1 µg/mL (≈ 2.44 µM)
[8]
  MIC: 8 µg/mL (≈ 19.5 µM)
[9]
  MIC: >16 µg/mL
[10]
  MIC: >16 µg/mL
[11]
  MIC: 8 µg/mL (≈ 19.5 µM)
[12]
  MIC: 8 µg/mL (≈ 19.5 µM)
[13]
  MIC: >16 µg/mL
[14]
  MIC: >16 µg/mL
[15]
  MIC50: 0.25 µg/mL (≈ 0.611 µM)
  MIC90: 0.5 µg/mL (≈ 1.22 µM)
[16]
  MIC50: >16 µg/mL
  MIC90: >16 µg/mL
[17]
  MIC50: 0.125 µg/mL (≈ 0.305 µM)
  MIC90: 0.25 µg/mL (≈ 0.611 µM)
[18]
  MIC50: 1 µg/mL (≈ 2.44 µM)
  MIC90: 1 µg/mL (≈ 2.44 µM)
[19]
  MIC50: 0.063 µg/mL (≈ 0.154 µM)
  MIC90: 0.125 µg/mL (≈ 0.305 µM)
